Assays:
[1] = test system: SH-SY5Y cells; test: Cell death from MPP+ mitochondrial damage, MTT cell viability; format: cell-based, Human; conditions: 1 mM MPP+ 24 h, then 0.0001-1 μM compound 24 h, FIG. 2
Procedure: (§1) Human neuronal SH-SY5Y cells were cultured in a 1:1 DMEM/F12 medium containing 10% FBS (fetal bovine serum) at 37° C. under 5% carbon dioxide and 95% air. The cultured cells were transferred to a 96-well cell culture plate at a density of 2*10^4 cells/well and cultured for 24 hours. Thereafter, after replacement with serum-restricted medium (1:1 DMEM/F12 medium containing 0.5% FBS), the cells were cultured for 16 hours. Then, the cultured cells were treated with 1 mM MPP+ (1-methyl-4-phenylpyridinium) and cultured for 24 hours, thus inducing mitochondrial dysfunction in the cells. […]
Each of the cultures obtained in Experimental Example 3-1 was treated with 0.2 mg/ml of 3-(4,5-dimethylthiazol-2-yl)-2,5-diphenyl-tetrazolium bromide (MTT; Sigma-Aldrich) and cultured for 4 hours. The MTT formazan precipitate formed by the viable cells was dissolved in 100 μl of 0.04N hydrochloric acid/isopropanol, and the absorbance at 540 nm was measured using an ELISA microplate reader (Molecular Devices).
(§2) The absorbances of controls were measured in the same manner as the above-described method, except for using a sample to which DMSO was added (normal control) instead of MMP+ and the compound of Formula III-1 and a sample to which the compound of Formula III-1 was not added (negative control).
The cell viability percentage was calculated from the absorbance.

[2] = test system: BV2 cells; test: NO and PGE2 production after LPS; format: cell-based; conditions: 3 h pretreatment (Table 3 amounts), LPS 1 μg/ml 24 h
In short: (§3)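 RAW264.7 or BV2 cells (5×10^5 cells/well) in DMEM with 10% FBS were pretreated with compound, then stimulated with 1 μg/ml LPS for 24 h. iNOS and COX-2 expression by Western blot; NO and PGE2 production measured. Compound toxicity checked by MTT.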

[3] = test system: RAW264.7 cells; test: NO and PGE2 production after LPS; format: cell-based; conditions: 3 h pretreatment (Table 3 amounts), LPS 1 μg/ml 24 h
In short: as §3

[4] = test system: SH-SY5Y cells; test: Intracellular ATP production after MPP+ mitochondrial damage; format: cell-based, Human; conditions: 1 mM MPP+ 24 h, then 0.0001-1 μM compound 24 h, FIG. 3
Procedure: as §1
100 μl of the cell lysate of the culture obtained in Experimental Example 3-1 was mixed with 100 μl of luciferin-luciferase reaction buffer using an ATP bioluminescent somatic cell assay kit (Sigma-Aldrich), and the mixture was allowed to react at 20° C. for 10 minutes. Thereafter, the supernatant was obtained and the fluorescence intensity thereof was measured with an LB 9501 Lumat-Luminometer to confirm recovery from the decrease in intracellular ATP production caused by mitochondrial damage.
as §2, with “fluorescence intensities” for “absorbances”, “control). […]” for “control).”

[5] = test system: SH-SY5Y cells; test: Reactive oxygen species generation (DCF-DA) after MPP+; format: cell-based, Human; conditions: 1 mM MPP+ 24 h, then 0.0001-1 μM compound 24 h, FIG. 4
Procedure: as §1
Based on the principle that 2′,7′-dichlorofluorescein diacetate (DCF-DA) is oxidized to fluorescent DCF by reaction with reactive oxygen species, the level of reactive oxygen species generation was measured. […] Then, the fluorescence intensity of DCF at an excitation wavelength of 485 nm and an emission wavelength of 535 nm and the fluorescence intensity of bisbenzimide at an excitation wavelength of 335 nm and an emission wavelength of 460 nm were measured using a fluorescence analyzer to determine the level of reactive oxygen species generation. […]
The concentration of DCF determined from the fluorescence intensity was expressed as a percentage of the normal control.

[6] = test system: RAW264.7 cells; test: Transcription of NF-κB protein (p65, p50) into nucleus after LPS (Western blot); format: cell-based; conditions: 3 h pretreatment (Table 3 amounts), LPS 1 μg/ml 1 h
In short: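 Cells (5×10^5/well) cultured in DMEM with 10% FBS at 37° C, 5% CO2, pretreated with compound, then stimulated with 1 μg/ml LPS for 1 hour. Nuclear levels of p65 and p50 measured by Western blot.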

[7] = test system: BV2 cells; test: iNOS and COX-2 expression after LPS (Western blot); format: cell-based; conditions: 3 h pretreatment (Table 3 amounts), LPS 1 μg/ml 24 h
In short: as §3

[8] = test system: RAW264.7 cells; test: iNOS and COX-2 expression after LPS (Western blot); format: cell-based; conditions: 3 h pretreatment (Table 3 amounts), LPS 1 μg/ml 24 h
In short: as §3

[9] = test system: SH-SY5Y cells; test: Mitochondrial reactive oxygen species (MitoSOX Red) after MPP+; format: cell-based, Human; conditions: 1 mM MPP+ 24 h, then 0.0001-1 μM compound 24 h, FIG. 5
Procedure: as §1
The level of reactive oxygen species generated in mitochondria was measured using a reduced fluorescent material called MitoSOX™ Red reagent.
Specifically, the culture obtained in Experimental Example 3-1 was treated with 50 μg of MitoSOX Red dissolved in 13 μl DMSO and was incubated at 37° C. for 1 hour. […] Then, the fluorescence intensity at an excitation wavelength of 510 nm and an emission wavelength of 595 nm was measured with a fluorescence analyzer to determine the level of reactive oxygen species generated in the mitochondria. […]
The concentration of MitoSOX Red determined from the fluorescence intensity was expressed as a percentage of the normal control.

CCOc1ccc(C2COc3c(ccc4c3CCC(C)(C)O4)C2)c(O)c1 (centres unmarked) [Formula III-1, 2-(8,8-dimethyl-2,3,4,8,9,10-hexahydropyrano[2,3-f]chromen-3-yl)-5-ethoxyphenol]
function of mitochondria damaged by MPP+ (cell viability percentage) [1]: restored
production of NO [2]: concentration-dependently decreased
production of PGE2 [2]: concentration-dependently decreased
production of NO [3]: concentration-dependently decreased
production of PGE2 [3]: concentration-dependently decreased
decrease in ATP production caused by mitochondrial damage due to MPP+ [4]: recovery
level of intracellular reactive oxygen species generation (DCF) [5]: decreased
level of transcription of NF-κB protein into the nucleus, p50 [6]: concentration-dependently decreased
level of transcription of NF-κB protein into the nucleus, p65 [6]: concentration-dependently decreased
expression level of COX-2 [7]: concentration-dependently decreased
expression level of iNOS [7]: concentration-dependently decreased
expression level of COX-2 [8]: concentration-dependently decreased
expression level of iNOS [8]: concentration-dependently decreased
level of reactive oxygen species generated in the mitochondria (Mito-SOX) [9]: decreased
